Measurements published in ChEMBL document CHEMBL3616426 (Eur J Med Chem, 2015).

Legend:
[1] = target: T1, Estrogen receptor (Homo sapiens) (UniProt P03372); assay: Antagonist activity at ERalpha (301 to 553 amino acid residues) (unknown origin) assessed as inhibition of E2 induced interaction with SRC1 after 24 hrs by yeast-two-hybrid assay; design: concentration or dose not given beside the values; scale not given: the % may be the effect or the level left
T1 sequence (whole entry): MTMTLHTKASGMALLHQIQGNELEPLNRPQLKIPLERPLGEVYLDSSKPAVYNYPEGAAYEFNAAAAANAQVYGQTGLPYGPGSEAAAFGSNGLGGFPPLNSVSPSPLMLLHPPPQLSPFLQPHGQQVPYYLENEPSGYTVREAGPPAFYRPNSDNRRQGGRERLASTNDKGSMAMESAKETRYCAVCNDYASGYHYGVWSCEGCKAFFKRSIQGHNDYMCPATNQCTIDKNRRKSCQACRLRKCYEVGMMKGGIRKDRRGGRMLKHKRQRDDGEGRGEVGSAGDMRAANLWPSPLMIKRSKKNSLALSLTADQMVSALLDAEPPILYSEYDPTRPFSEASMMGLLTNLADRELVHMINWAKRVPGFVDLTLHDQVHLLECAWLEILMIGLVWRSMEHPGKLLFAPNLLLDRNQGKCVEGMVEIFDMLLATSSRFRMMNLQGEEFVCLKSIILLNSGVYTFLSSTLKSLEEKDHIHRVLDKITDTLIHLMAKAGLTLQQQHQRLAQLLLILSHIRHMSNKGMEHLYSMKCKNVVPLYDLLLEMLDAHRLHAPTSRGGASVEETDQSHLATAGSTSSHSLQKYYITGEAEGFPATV

[2] = target: T1, Estrogen receptor (Homo sapiens); assay: Agonist activity at ERalpha (301 to 553 amino acid residues) (unknown origin) assessed as induction of interaction with SRC1 after 24 hrs by yeast two-hybrid assay relative to isopaucifloral F
Estrogen receptor beta = Estrogen receptor beta (Homo sapiens, UniProt Q92731); assay: Agonist activity at ERbeta (248 to 510 amino acid residues) (unknown origin) assessed as induction of interaction with SRC1 after 24 hrs by yeast two-hybrid assay
Estrogen receptor beta, sequence (Q92731 whole entry, the tested form may be a part): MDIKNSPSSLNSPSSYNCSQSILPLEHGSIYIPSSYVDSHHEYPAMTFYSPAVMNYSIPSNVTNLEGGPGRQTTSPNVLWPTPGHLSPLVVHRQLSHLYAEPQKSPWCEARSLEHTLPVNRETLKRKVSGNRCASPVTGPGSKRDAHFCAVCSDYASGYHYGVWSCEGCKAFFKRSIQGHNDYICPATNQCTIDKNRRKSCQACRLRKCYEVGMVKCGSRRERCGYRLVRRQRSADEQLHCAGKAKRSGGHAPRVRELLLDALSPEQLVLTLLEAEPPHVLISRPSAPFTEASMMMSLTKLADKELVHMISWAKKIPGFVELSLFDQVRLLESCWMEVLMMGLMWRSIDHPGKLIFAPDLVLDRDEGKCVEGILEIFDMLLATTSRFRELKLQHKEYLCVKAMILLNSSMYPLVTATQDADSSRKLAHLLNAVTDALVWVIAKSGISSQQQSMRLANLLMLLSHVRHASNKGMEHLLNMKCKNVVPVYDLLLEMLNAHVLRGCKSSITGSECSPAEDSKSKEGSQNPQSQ

Rattus norvegicus [3] = assay: Antiosteoporotic activity in ovariectomized Sprague-Dawley rat assessed as bone volume /tissue volume at 1 ug/kg, po qd at 12th week by micro-CT analysis (reference value: 31.61 +/- 2.39%); format: functional
Rattus norvegicus [4] = assay: Antiosteoporotic activity in ovariectomized Sprague-Dawley rat assessed as trabecular thickness at 1 ug/kg, po qd at 12th week by micro-CT analysis (reference value: 0.070 +/- 0.0063 millimeter); format: functional, Trabecula
Rattus norvegicus [5] = assay: Antiosteoporotic activity in ovariectomized Sprague-Dawley rat assessed as trabecular thickness at 1 ug/kg, po qd at 6th week by micro-CT analysis (reference value: 0.086 +/- 0.0069 millimeter); format: functional, Trabecula
Rattus norvegicus [6] = assay: Antiosteoporotic activity in ovariectomized Sprague-Dawley rat assessed as trabecular separation at 1 ug/kg, po qd at 18th week by micro-CT analysis (reference value: 0.234 +/- 0.021 millimeter); format: functional, Trabecula
Rattus norvegicus [7] = assay: Antiosteoporotic activity in ovariectomized Sprague-Dawley rat assessed as trabecular separation at 1 ug/kg, po qd at 6th week by micro-CT analysis (reference value: 0.116 +/- 0.010 millimeter); format: functional, Trabecula
Rattus norvegicus [8] = assay: Antiosteoporotic activity in ovariectomized Sprague-Dawley rat assessed as bone volume /tissue volume at 1 ug/kg, po qd at 6th week by micro-CT analysis (reference value: 41.33 +/- 5.04%); format: functional
Rattus norvegicus [9] = assay: Antiosteoporotic activity in ovariectomized Sprague-Dawley rat assessed as bone volume /tissue volume at 1 ug/kg, po qd at 18th week by micro-CT analysis (reference value: 27.36 +/- 1.99%); format: functional
Rattus norvegicus [10] = assay: Antiosteoporotic activity in ovariectomized Sprague-Dawley rat assessed as trabecular thickness at 1 ug/kg, po qd at 18th week by micro-CT analysis (reference value: 0.103 +/- 0.0044 millimeter); format: functional, Trabecula
Rattus norvegicus [11] = assay: Antiosteoporotic activity in ovariectomized Sprague-Dawley rat assessed as serum osteocalcin level at 1 ug/kg, po qd at 18th week by enzyme immunoassay (reference value: 1118.9 +/- 37.77 ng/ml); format: functional
Rattus norvegicus [12] = assay: Antiosteoporotic activity in ovariectomized Sprague-Dawley rat assessed as trabecular separation at 1 ug/kg, po qd at 12th week by micro-CT analysis (reference value: 0.146 +/- 0.010 millimeter); format: functional, Trabecula
Rattus norvegicus [13] = assay: Antiosteoporotic activity in ovariectomized Sprague-Dawley rat assessed as serum osteocalcin level at 1 ug/kg, po qd at 12th week by enzyme immunoassay (reference value: 1055.8 +/- 14 ng/ml); format: functional

Row | SMILES | Activity [1] [%] | fold change (FC) [2] | other results
1 | Oc1ccc([C@@H]2c3c(O)cc(O)cc3[C@H]3[C@H](c4ccc(F)cc4)c4c(O)cc(O)cc4[C@@H]23)cc1 | 0 | 0.95 | 
2 | Oc1cc(O)c2c(c1)[C@H]1[C@H](c3ccccc3)c3c(O)cc(O)cc3[C@H]1[C@@H]2c1ccccc1 | 0 | 0.86 | 
3 | Oc1ccc([C@@H]2c3c(O)cc(O)cc3[C@H]3[C@H](c4ccc(O)cc4)c4c(O)cc(O)cc4[C@@H]23)cc1 | 5.23 | 1.01 | 
4 | Cc1ccc([C@@H]2c3c(O)cc(O)cc3[C@H]3[C@H](c4ccc(O)cc4)c4c(O)cc(O)cc4[C@@H]23)cc1 | 0 | 0.99 | EC50 (Estrogen receptor beta): 5.65 µM
5 | Oc1ccc(/C=C2/c3cc(O)cc(O)c3[C@@H](c3ccc(O)cc3)[C@@H]2c2cc(O)cc(O)c2)cc1 | 20.9 | 0.92 | 
6 | Oc1ccc(CC2=C(c3cc(O)cc(O)c3)C(c3ccccc3)c3c(O)cc(O)cc32)cc1 (stereo not given) | 8.48 | 0.86 | 
7 | Oc1ccc(/C=C/c2cc(O)cc(O)c2)cc1 | 0 | 0.1 | 
8 | Oc1ccc(C2C(c3cc(O)cc(O)c3)=C(Cc3ccc(F)cc3)c3cc(O)cc(O)c32)cc1 (stereo not given) | 1.59 | 0.83 | 
9 | O=C1c2cc(O)cc(O)c2[C@@H](c2ccccc2)[C@@H]1c1cc(O)cc(O)c1 (relative stereo) | 7.59 | 0.97 | 
10 | Oc1ccc([C@@H]2c3c(O)cc(O)cc3[C@H]3[C@H](c4ccccc4)c4c(O)cc(O)cc4[C@@H]23)cc1 | 0.76 | 0.94 | 
11 | Oc1ccc(C2C(c3cc(O)cc(O)c3)=C(Cc3ccccc3)c3cc(O)cc(O)c32)cc1 (stereo not given) | 2 | 0.98 | 
12 | Oc1ccc(C2C(c3cc(O)cc(O)c3)=C(Cc3ccc(Cl)cc3)c3cc(O)cc(O)c32)cc1 (stereo not given) | 15.2 | 0.88 | EC50 (Estrogen receptor beta): 45.8 µM
13 | Oc1ccc([C@@H]2c3c(O)cc(O)cc3C(O)[C@H]2c2cc(O)cc(O)c2)cc1 (relative stereo) | 24.5 | 1.04 | 
14 | O=C1c2cc(O)cc(O)c2[C@@H](c2ccc(F)cc2)[C@@H]1c1cc(O)cc(O)c1 (relative stereo) | 7.61 | 0.94 | 
15 | Oc1cc(O)cc(C2=C(Cc3ccccc3)c3cc(O)cc(O)c3C2c2ccccc2)c1 (stereo not given) | 0 | 0.88 | 
16 | Oc1ccc(CC2=C(c3cc(O)cc(O)c3)C(c3ccc(O)cc3)c3c(O)cc(O)cc32)cc1 (stereo not given) | 5.84 | 0.94 | 
17 | O=c1c(-c2ccc(O)cc2)coc2cc(O)cc(O)c12 [GENISTEIN] |  |  | Activity (Rattus norvegicus [3]): 40.62%; Activity (Rattus norvegicus [4]): 0.079 mm; Activity (Rattus norvegicus [5]): 0.084 mm; Activity (Rattus norvegicus [6]): 0.157 mm; Activity (Rattus norvegicus [7]): 0.125 mm; Activity (Rattus norvegicus [8]): 40.5%; Activity (Rattus norvegicus [9]): 41.62%; Activity (Rattus norvegicus [10]): 0.102 mm; Activity (Rattus norvegicus [11]): 882.76 ng/mL; Activity (Rattus norvegicus [12]): 0.134 mm; Activity (Rattus norvegicus [13]): 954.33 ng/mL
